The record followed here is publication PMC9555310, “Novel inhibitors and activity-based probes targeting serine proteases” (Frontiers in Chemistry, 2022).

Each structure is given as a SMILES string.

Experiment [1] deals with T1, thrombin (Homo sapiens, UniProt P00734).
T1 construct: apparent molecular mass of 31 kDa, corresponding to the heavy (catalytic) chain of the protease; purchased R&D Systems
Put plainly: Activity-based profiling of thrombin (SDS-PAGE, streptavidin-HRP western blot). As to conditions: pre-treatment 30 min, 37°C. It counts as binding. The procedure: (§1) Samples of recombinant protease (trypsin, plasmin, thrombin, chymotrypsin, or HNE, as indicated in the relevant figure legends) were treated with each of the newly synthesized compounds at a concentration of 50 μM, for 30 min, at 37°C. A control sample (no ABP) was prepared by treating the recombinant protease with solvent vehicle (DMF) only, used to prepare the stock solution of each ABP. Samples were also pre-treated (±90°C for 30 min) before being incubated with each putative ABP. With trypsin and thrombin, further samples were prepared where Z-Arg^P-(OPh)2 or NAP559, respectively, was added 30 min prior to the addition of the ABP under examination. All treated samples were then denatured with SDS containing reducing treatment buffer (10 min at 95°C), followed by resolution by SDS-PAGE and subjected to Western blotting. Resolved proteins were then transferred onto the nitrocellulose membrane and labeled with streptavidin-HRP. The ABP–protease complex was then visualized following treatment with Luminata Forte HRP substrate.
FIGURE 8 Activity Based Profiling of Trypsin-like serine proteases. (A) trypsin was treated (±) with NAP830, for 30 min, at 37°C (± pretreatment with Z-Arg^P-(OPh)2). (B) thrombin (1 […]) was pre-treated with various concentrations of NAP559 (30 min, at 37°C) followed by treatment (±) with NAP858 for 30 min, at 37°C. (C) Plasmin was treated in turn with QUBTL1, NAP962 and NAP830, (± pre-heat inactivation at 95°C, for 10 min) for 30 min, at 37°C. […]
(§2) Following transfer, the extra protein binding sites on the membrane were blocked by addition of 3% (w/v) BSA in TBST (20 mM Tris, 137 mM NaCl, 1% (v/v) Tween 20, pH 7.6) and agitated gently at room temperature for 30 minutes. The biotin-labelled proteases were then detected by addition of Streptavidin-HRP (Vector Laboratories) in 3% (w/v) BSA in TBST at a concentration of 1:20000, for 1 hour at room temperature. […]
In general terms: A western blot detects proteins with antibodies after separation by electrophoresis.

The target of experiment [2] is T1, thrombin. Nature of the experiment: Irreversible inhibition kinetics of thrombin (fluorogenic substrate progress curves). The settings on record: PBS pH 7.4, 37°C, mean ± SD (n=2). The class given is biochemical. The procedure:
A range of inhibitor concentrations were prepared from a 10 mM stock solution of the test compounds (NAP533, NAP559, NAP800, NAP830, NAP849, and NAP962) in N, N-dimethylformamide (DMF). Recombinant protease activities were assayed using the cognate fluorogenic substrates as follows: trypsin (Z-Gly-Gly-Arg-NHMec), thrombin (Boc-Val-Pro-Arg-NHMec), plasmin (Boc-Val-Leu-Lys-NHMec), human neutrophil elastase (MeO-Succinyl-Ala-Ala-Pro-Val-NHMec), and chymotrypsin (Succinyl-Ala-Ala-Pro-Phe-NHMec). Each substrate was used at a final concentration of 50 μM, in the appropriate buffer for each protease. All inhibition assays were performed in microtiter plates maintained at 37°C in a final volume of 100 μL. The reaction was initiated by the addition of each protease (approx. 0.01 μg/well) and the rate of substrate hydrolysis was recorded continuously at 37°C, over a 60 min period, by measuring the rate of increase in fluorescence (at λex 360 nm, λem 480 nm) using a FLUOstar Optima microplate reader (BMG Labtech).
The resultant inhibition progress curves obtained for each inhibitor were analyzed by the kinetic models developed by [Tian and Tsou (1982)] and [Walker and Elmore (1984)], for irreversible inhibitors, with curve fitting being achieved using GraFit (Erithacus Software), as described previously ([Ferguson et al., 2016]).
Protease inactivation by each of the compounds under study was evaluated using a fluorogenic enzyme assays. Protease-substrate combinations used as detailed in Section 2. Inhibitors were made up as 10 mM stock solutions in either DMF or DMSO, then diluted with PBS (pH 7.4) to give appropriate working concentrations. A final volume of 100 μL was used per well. […] Increase in fluorescence was recorded using a FLUOstar OPTIMA spectrofluorometer (BMG Labtech), excitation 380 nm and emission 460 nm, for 61 cycles (60 seconds/cycle), with results analysed using MARS Data Analysis Software (BMG Labtech). […]

Another experiment addresses T2, trypsin (Sus scrofa, UniProt P00761).
T2 construct: purchased Sigma-Aldrich; host or cells: porcine pancreas
Nature of the experiment: Activity-based profiling of trypsin (SDS-PAGE, streptavidin-HRP western blot). The class given is binding, porcine. As to conditions: 50 μM ABP, 30 min, 37°C; band of apparent molecular weight 23 kDa. On the procedure:
as §1, with “The ABP–protease complex was then visualized following treatment with Luminata Forte HRP substrate.” left out
as §2

T2 sequence (P00761 9-231): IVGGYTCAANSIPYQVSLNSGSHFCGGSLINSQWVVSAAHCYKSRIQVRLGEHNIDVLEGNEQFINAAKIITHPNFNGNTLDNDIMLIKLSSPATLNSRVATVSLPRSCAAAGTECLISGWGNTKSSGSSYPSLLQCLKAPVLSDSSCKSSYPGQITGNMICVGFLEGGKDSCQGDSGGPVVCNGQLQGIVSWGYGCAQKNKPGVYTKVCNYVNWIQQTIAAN

For `N=C(N)NCCCN(CC(=O)N1CCC[C@H]1C(=O)N(CC(N)=O)Cc1ccccc1)C(=O)ON1C(=O)CCC1=O` [NAP559, Succinimidoyl-CO-NArg-D-Pro-NPhe-NH2], the “effect of pre-treatment of thrombin on 31 kDa band disclosed by NAP858” value was “slight but a discernible diminution in the intensity of the band” at thrombin [1] (1 μM); “almost completely extinguished” at thrombin [1] (10 and 50 μM). In addition, the KI (inactivation) on thrombin [2] (Boc-Val-Pro-Arg-NHMec 50µM) came to 5.67 µM. For the same compound, at thrombin [2] (first-order rate constant), the k 3 is given as 0.6 (± 0.068) min^-1. Further, the “k 3 / K i” value at thrombin [2] (second-order rate constant) is listed as 1.1 (± 0.3) x 10^5 M^-1 min^-1.
For the compound `NCCCCN(CC(=O)NCC(=O)NCC(=O)NCCCOCCOCCOCCCNC(=O)CCCCC1SCC2NC(=O)NC21)C(=O)ON1C(=O)CCC1=O` (stereo not drawn) [NAP830, Succinimidoyl-CO-NLys-Gly-Gly-PEG-Biotin], the “labelling of trypsin by ABP (western blot)” value on trypsin is “enabled the active site labeling and detection of the protease”.
